Measurements taken from patent US20230165867A1 (CHENGDU BAIYU PHARMACEUTICAL CO., LTD., priority 2020, published 2023).
Like-named read-outs stand apart in the source and are kept apart here.

Columns and labels:
[1] = biological target: T1, DNA-PK kinase (Homo sapiens, UniProt P78527); experiment: Inhibition assay of DNA-PK kinase (Promega kit, ADP-Glo chemiluminescence); format: biochemical; settings: 50 µM ATP, 37° C., 60 min; read-out: IC50 (nM), inhibitory activity on DNA-PK kinase
T1 construct: purchased Promega V4107
Procedure, shortened: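 Compounds incubated with DNA-PK at 37° C for 60 min; reaction stopped with ADP-Glo reagent (40 min, RT), then kinase detection reagent (30 min, RT). ADP formed read by luminescence against an ADP standard curve.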

[2] = Metabolic stability in liver microsomes; format: in vitro ADME, human; settings: human, human liver microsomes; 0.5 µM test substance, 0.5 mg/mL microsomes, NADPH and UDPGA, 37° C.; read-out: T½(min), stability in human liver microsomes
Description: Liver microsomes (purchased from Reed Liver Disease Research (Shanghai) Co., Ltd., product: human liver microsomes (NJT)); NADPH (purchased from Roche, Lot: 40939); UDPGA; the compounds of the present invention (test substances).
• (1) A mixed working solution of testosterone (0.5 µM) and 7-hydroxycoumarin (0.5 µM) was prepared. • (2) A mixed solution of NADPH (1 mM) and UDPGA (1 mM) was prepared, and prewarmed at 37° C. in a water bath shaker before use. • (3) Liver microsomes were thawed and diluted with a buffer. • (4) A preparation of a test substance (0.5 µM) and a solution of liver microsomes (0.5 mg/mL) were added to each well of an incubation plate. • (5) Three experimental groups were set and samples were added. Test group: the test substance was incubated with liver microsomes for 0 min, 30 min, 60 min, and 120 min in the presence of the coenzyme NADPH and UDPGA; Positive control group: testosterone (0.5 µM) and 7-hydroxycoumarin (0.5 µM) were incubated with microsomes for 0 min and 120 min in the presence of the coenzyme NADPH and UDPGA; Negative control group: the test substance was incubated with microsomes for 0 and 120 min without any coenzyme. • (6) All samples were incubated at 37° C., and pre-cooled methanol was added at each termination time (0, 15, 30, 45, 60 min, 120 min) to terminate the reaction, and the time was recorded. • (7) All samples were mixed well and centrifuged at 4000 rpm for 10 min. The supernatant was taken and measured by LC-MS/MS for the amount of the test substance remaining in the samples. Data analysis was carried out as follows: T½=0.693 /k, Clint = (0.693/T½) × (1 /(microsomal protein) × Scaling Factors), Note: k is the slope of the logarithm of the remaining amounts of compound versus time.

[3] = Pharmacokinetic assay in ICR mice (i.v. and p.o.); format: in vivo; settings: mouse, plasma, male ICR mice; for half-life: read-out: T½ (converted); for bioavailability: po 10 mg/kg vs iv 1 mg/kg
Procedure, shortened: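 Fasted male ICR mice (18-22 g) dosed at 1 mg/kg i.v. or 10 mg/kg p.o. in 5% DMSO/95% 30% HP-β-CD, three mice per time point. Submandibular plasma sampled up to 24 h, assayed by LC/MS/MS.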

| SMILES | IC50 [1] | half-life at 0.5 µM [2] | AUC ([3]; iv, 1 mg/kg) | half-life ([3]; iv, 1 mg/kg) | bioavailability [3] | AUC ([3]; po, 10 mg/kg) | Cmax ([3]; po, 10 mg/kg) | half-life ([3]; po, 10 mg/kg) |
| --- | --- | --- | --- | --- | --- | --- | --- | --- |
| CNC(=O)c1cc(C)c(Nc2ncc3c(n2)n(C2CCOCC2)c(=O)n3C)cn1 [Compound 54, N,4-Dimethyl-5-((7-methyl-8-oxo-9-(tetrahydro-2H-pyran-4-yl)-8,9-dihydro-7H-purin-2-yl)amino)picolinamide] | 8.07 nM | > 120 min | 840 ng·h/mL | 313 min | 63.9% | 5370 ng·h/mL | 2060 ng/mL | 193 min |
| Cc1cc(C(N)=O)c(F)cc1Nc1ncc2c(n1)n([C@H]1CCOC1)c(=O)n2C [Compound 75, (S)-2-fluoro-5-methyl-4-((7-methyl-8-oxo-9-(tetrahydrofuran-3-yl)-8,9-dihydro-7H-purin-2-yl)amino)benzamiderile] | 5.69 nM | > 120 min | 109 ng·h/mL | 18.6 min | 69.2% | 756 ng·h/mL | 984 ng/mL | 126 min |
| Cc1cc(C(N)=O)c(F)cc1Nc1ncc2c(n1)n([C@@H]1CCOC1)c(=O)n2C [Compound 76, (R)-2-fluoro-5-methyl-4-((7-methyl-8-oxo-9-(tetrahydrofuran-3-yl)-8,9-dihydro-7H-purin-2-yl)amino)benzamiderile] | 1.96 nM | > 120 min | 120 ng·h/mL | 18 min | 104% | 1360 ng·h/mL | 1570 ng/mL | 55.8 min |
| Cc1cc(C(N)=O)c(F)cc1Nc1ncc2c(n1)n([C@H]1CC[C@@H](C#N)CC1)c(=O)n2C [Compound 77, 4-((9-(cis-4-cyanocyclohexyl)-7-methyl-8-oxo-8,9-dihydro-7H-purin-2-yl)amino)-2-fluoro-5-methylbenzamide] | 4.67 nM | > 120 min | 545 ng·h/mL | 93 min | 108% | 5970 ng·h/mL | 1750 ng/mL | 194 min |
| Cc1cc(C(N)=O)c(F)cc1Nc1ncc2c(n1)n([C@H]1CC[C@H](C#N)CC1)c(=O)n2C [Compound 79, 4-((9-(trans-4-cyanocyclohexyl)-7-methyl-8-oxo-8,9-dihydro-7H-purin-2-yl)amino)-2-fluoro-5-methylbenzamide] | 1.86 nM | > 120 min | 482 ng·h/mL | 37.8 min | 100% | 4440 ng·h/mL | 2490 ng/mL | 129 min |
| Cc1cc(C#N)ccc1Nc1ncc2c(n1)n([C@H]1CC[C@H](C#N)CC1)c(=O)n2C [Compound 80, 4-((9-(trans-4-cyanocyclohexyl)-7-methyl-8-oxo-8,9-dihydro-7H-purin-2-yl)amino)-3-methylbenzonitrile] | 11.1 nM | > 120 min | 6300 ng·h/mL | 187 min | 33.6% | 21200 ng·h/mL | 3570 ng/mL | 130 min |
